The test system of assay [1] is His-eIF4GI HEAT-1. Kind of assay: cobalt affinity pull-down, GST-VPg C-terminal fusions as prey (Fig 4B-E). It counts as binding, human. Conditions: for % binding (relative to WT) / Bait/Prey / Prey/Bait: Figure 4E; for % binding (relative to WT): ImageJ quantification; for Bait/Prey / Prey/Bait: band density ratio, ImageJ; for binding to His-eIF4GI HEAT-1 in cobalt pull-down: bait 2.6 µM, GST-VPg fusions 1.5 µM; for binding to His-eIF4GI HEAT-1 in cobalt pull-down / binding to His-eIF4GI HEAT-1, % of wild-type: 25 mM MES, 150 mM NaCl, pH 6.5; for binding to His-eIF4GI HEAT-1, % of wild-type: quantification of pull-down, Fig 4E.

The test system of assay [2] is His-tagged MNV VPg(1–124). The experiment in a line: cobalt affinity pull-down, eIF4GI HEAT-1 mutants as prey (Fig 5D-E).
The target in assay [3] is His-eIF4GI HEAT-1. The experiment in a line: cobalt affinity pull-down, SDS PAGE band quantification. The conditions noted are these: parent: est. 100; read off a plot.

For the substance D110A, in the assay with His-eIF4GI HEAT-1 [1] (repeat 1, 2014-07-24), the “% binding (relative to WT)” value is 71.5502%, the Bait/Prey was 3.801 and the Prey/Bait was 0.2631. In addition, in the assay on His-eIF4GI HEAT-1 [1] (repeat 2, 2014-07-25), the “% binding (relative to WT)” value is 69.0469%, the Bait/Prey was found to be 2.646 and the Prey/Bait is given as 0.3779. In addition, in the assay on His-eIF4GI HEAT-1 [1] (repeat 3, 2014-07-25), the “% binding (relative to WT)” value turned out to be 77.4561%, the Bait/Prey amounted to 2.312 and the Prey/Bait amounted to 0.4326. For the same substance, in the assay on His-eIF4GI HEAT-1 [1] (repeat 4, 2014-07-31), the “% binding (relative to WT)” value was 83.3957%, the Bait/Prey is on record as 2.418 and the Prey/Bait came to 0.4136. In the assay on His-eIF4GI HEAT-1 [1], the “binding to His-eIF4GI HEAT-1 in cobalt pull-down” value (from here on “binding … in cobalt pull-down”) is “capable of binding eIF4GI HEAT-1” and the “binding to His-eIF4GI HEAT-1, % of wild-type” value is 60–80%.
Consider E913R, for which the “Relative density normalised to WT (%)” value in assay [2] (150 mM NaCl, experiment 1) is listed as 72.7%; in assay [2] (150 mM NaCl, experiment 2) it was 89.6%; in assay [2] (150 mM NaCl, experiment 3), 82.8%; in assay [2] (300 mM NaCl, experiment 1) it was 49.0%; in assay [2] (300 mM NaCl, experiment 2) it was 56.0%.
With GST-MNV VPg(102–124) D110A, the percent of parent (% of WT (normalised OD ratio)) with His-eIF4GI HEAT-1 [3] stood at 75.
Regarding GST-MNV VPg(102–124) F123A, the percent of parent (% of WT (normalised OD ratio)) in the assay with His-eIF4GI HEAT-1 [3] turned out to be 6.
GST-MNV VPg(102–124) K120A: the percent of parent (% of WT (normalised OD ratio)) with His-eIF4GI HEAT-1 [3] stood at 90.
Still for that read-out and setting: then GST-MNV VPg(102–124) R113A, with 64; and GST-MNV VPg(102–124) V115A, with 3.
As for K120A, the “% binding (relative to WT)” value is on record as 102.078% with His-eIF4GI HEAT-1 [1] (repeat 1, 2014-07-24); 80.9274% with His-eIF4GI HEAT-1 [1] (repeat 2, 2014-07-25); 85.5916% with His-eIF4GI HEAT-1 [1] (repeat 3, 2014-07-25); 78.1139% with His-eIF4GI HEAT-1 [1] (repeat 4, 2014-07-31); 78.74% in the assay on His-eIF4GI HEAT-1 [1] (repeat 7, 2015-08-05). Moreover, the Bait/Prey in the assay on His-eIF4GI HEAT-1 [1] (repeat 1, 2014-07-24) worked out at 2.664; with His-eIF4GI HEAT-1 [1] (repeat 2, 2014-07-25) it was 2.258; in the assay with His-eIF4GI HEAT-1 [1] (repeat 3, 2014-07-25), 2.092; in the assay with His-eIF4GI HEAT-1 [1] (repeat 4, 2014-07-31), 2.581; in the assay with His-eIF4GI HEAT-1 [1] (repeat 7, 2015-08-05), 4.118. The Prey/Bait in the assay with His-eIF4GI HEAT-1 [1] (repeat 1, 2014-07-24) stood at 0.3754; with His-eIF4GI HEAT-1 [1] (repeat 2, 2014-07-25), 0.4429; in the assay on His-eIF4GI HEAT-1 [1] (repeat 3, 2014-07-25), 0.478; in the assay on His-eIF4GI HEAT-1 [1] (repeat 4, 2014-07-31), 0.3874; with His-eIF4GI HEAT-1 [1] (repeat 7, 2015-08-05), 0.2428. Also, the “binding … in cobalt pull-down” value in the assay with His-eIF4GI HEAT-1 [1] is listed as “appears to bind as effectively as the wild-type sequence”.
Turning to R113A, the “% binding (relative to WT)” value in the assay with His-eIF4GI HEAT-1 [1] (repeat 1, 2014-07-24) stood at 63.4705%; in the assay on His-eIF4GI HEAT-1 [1] (repeat 2, 2014-07-25), 60.4116%; with His-eIF4GI HEAT-1 [1] (repeat 3, 2014-07-25) it was 58.2069%; in the assay with His-eIF4GI HEAT-1 [1] (repeat 4, 2014-07-31) it was 76.2941%. Moreover, the Bait/Prey is on record as 4.285 with His-eIF4GI HEAT-1 [1] (repeat 1, 2014-07-24); 3.025 in the assay with His-eIF4GI HEAT-1 [1] (repeat 2, 2014-07-25); 3.0762 in the assay with His-eIF4GI HEAT-1 [1] (repeat 3, 2014-07-25); 2.643 in the assay on His-eIF4GI HEAT-1 [1] (repeat 4, 2014-07-31). The Prey/Bait is recorded as 0.2334 with His-eIF4GI HEAT-1 [1] (repeat 1, 2014-07-24); 0.3306 in the assay on His-eIF4GI HEAT-1 [1] (repeat 2, 2014-07-25); 0.3251 in the assay on His-eIF4GI HEAT-1 [1] (repeat 3, 2014-07-25); 0.3784 in the assay with His-eIF4GI HEAT-1 [1] (repeat 4, 2014-07-31). For the same substance, the “binding … in cobalt pull-down” value in the assay with His-eIF4GI HEAT-1 [1] is listed as “capable of binding eIF4GI HEAT-1”. In addition, the “binding to His-eIF4GI HEAT-1, % of wild-type” value in the assay with His-eIF4GI HEAT-1 [1] is 60–80%.
